Residue numbers refer to the chain shown, from its start.
Key:
Conditions in all cases: at 1 µM
[1] = test system: Receptor-type tyrosine-protein kinase FLT3 (Homo sapiens), P36888 [UNDEFINED MUTATION]; assay: (§1) Selectivity interaction (KinomeScan (DiscoverX)) EUB0001619a FLT3
[2] = test system: T1, Receptor-type tyrosine-protein kinase FLT3 (Homo sapiens), P36888 [N841I]; assay: as §1
T1 sequence (whole entry): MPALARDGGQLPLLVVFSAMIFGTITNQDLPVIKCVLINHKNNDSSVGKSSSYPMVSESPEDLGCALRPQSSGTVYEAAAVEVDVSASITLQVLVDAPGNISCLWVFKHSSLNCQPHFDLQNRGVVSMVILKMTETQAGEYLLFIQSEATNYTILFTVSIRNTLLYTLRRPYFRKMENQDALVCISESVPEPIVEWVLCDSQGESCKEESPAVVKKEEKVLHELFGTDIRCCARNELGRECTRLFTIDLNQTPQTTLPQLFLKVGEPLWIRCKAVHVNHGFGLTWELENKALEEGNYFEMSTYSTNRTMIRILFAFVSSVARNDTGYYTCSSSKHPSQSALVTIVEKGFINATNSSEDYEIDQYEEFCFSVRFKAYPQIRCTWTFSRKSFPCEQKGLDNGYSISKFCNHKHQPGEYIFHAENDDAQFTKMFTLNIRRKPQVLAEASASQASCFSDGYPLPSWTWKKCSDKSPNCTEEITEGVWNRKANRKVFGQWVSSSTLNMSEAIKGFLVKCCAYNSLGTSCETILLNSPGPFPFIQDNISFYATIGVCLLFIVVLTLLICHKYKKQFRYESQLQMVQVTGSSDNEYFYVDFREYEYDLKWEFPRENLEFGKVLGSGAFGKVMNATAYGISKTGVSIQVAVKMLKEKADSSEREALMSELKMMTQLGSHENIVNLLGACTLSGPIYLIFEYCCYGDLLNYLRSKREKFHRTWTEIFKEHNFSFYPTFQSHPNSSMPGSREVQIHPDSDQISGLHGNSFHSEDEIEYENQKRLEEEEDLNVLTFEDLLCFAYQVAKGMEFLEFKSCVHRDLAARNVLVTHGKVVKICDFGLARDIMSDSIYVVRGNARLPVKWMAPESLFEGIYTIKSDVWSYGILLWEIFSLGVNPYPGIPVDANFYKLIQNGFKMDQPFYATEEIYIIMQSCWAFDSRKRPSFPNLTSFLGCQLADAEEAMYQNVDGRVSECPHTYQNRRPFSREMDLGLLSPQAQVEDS

[3] = test system: T2, Receptor-type tyrosine-protein kinase FLT3 (Homo sapiens), P36888 [D835H]; assay: as §1
T2 sequence (whole entry): T1 sequence (whole entry) with D835H, I841N

[4] = test system: T3, Receptor-type tyrosine-protein kinase FLT3 (Homo sapiens), P36888 [D835Y]; assay: as §1
T3 sequence (whole entry): T1 sequence (whole entry) with D835Y, I841N

Which % of control [1] does the source give for `N#Cc1cccc(-c2c[nH]c3ncnc(N4CCOCC4)c23)c1` here?
Its % of control is 100%.

And the % of control [2]?
The % of control was 100%.

And the % of control [3]?
Its % of control is 72%.

And the % of control [4]?
Its % of control is 65%.
